# How the values were obtained:
# Pim-1 = target: T1, Pim-1 (Homo sapiens, UniProt P11309); assay: TR-FRET assay of Pim kinase activity (phosphorylation of Bad Ser112), Pim-1; assay type: biochemical; details: ATP 40 μM, read-out: IC50 Pim1
# T1 construct: full-length human recombinant His6-labelled Pim-1, Pim-2 or Pim-3 protein; His6; made in house
# Experimental: (§1) In order to determine the inhibition of Pim kinase activity, the compounds of the invention are tested in accordance with a routinely-used in-vitro TR-FRET assay (“Time Resolved-Fluorescence Resonance Energy Transfer”). […] For the assay, the following reagents are used:
# (§2) Pim kinase—full-length human recombinant His6-labelled Pim-1, Pim-2 or Pim-3 protein (prepared according to J. Mol. Biol. (2005) 348, 183-193); Bad—full-length human recombinant His6-labelled Bad protein (prepared according to J. Mol. Biol. (2005) 348, 183-193); α-His6-APC—mouse monoclonal antibody conjugated to allophycocyanine SureLight™ directed against the His6 label (Perkin-Elmer, No. AD0059H, Waltham, Mass., United States); α-P˜Bad-Eu—mouse monoclonal antibody (Cell Signaling Technology #9296B, Danvers, Mass., United States) directed against phosphoBad (Ser112) (7E11) labelled on request by Perkin-Elmer with the reagent LANCE™ Eu-W1024.
# (§3) The assay is based on the LANCE™ technology from Perkin-Elmer: the Eu-labelled antibody binds to phospho-Ser112 and generates a TR-FRET signal by interaction with the […] antibody directed against His6, bound to the His6 label of Bad. The TR-FRET signal is detected using a SpectraMax M5 plate reader (Molecular Devices) with the following settings: λex=340 nm, λem1=615 nm, λem2=665 nm. The ratio of the fluorescence signal at 665 nm to the fluorescence signal at 615 nm is used as the signal reading for the IC50 (calculations based on the 4-parameter logistic model). The assay is performed in 384-well format; the liquid manipulations are performed using a Beckmann 3000 liquid manipulation station. The test compounds are tested at 10 concentration points in duplicate; the highest concentration of compound is typically equal to 30 μM. The ATP concentration is equal to 40 μM.
# Pim-2 = target: T2, Pim-2 (Homo sapiens, UniProt Q9P1W9); assay: TR-FRET assay of Pim kinase activity (phosphorylation of Bad Ser112), Pim-2; assay type: biochemical; details: ATP 40 μM, read-out: IC50 Pim2
# T2 construct: full-length human recombinant His6-labelled Pim-1, Pim-2 or Pim-3 protein; His6; made in house
# T2 sequence (Q9P1W9 whole entry): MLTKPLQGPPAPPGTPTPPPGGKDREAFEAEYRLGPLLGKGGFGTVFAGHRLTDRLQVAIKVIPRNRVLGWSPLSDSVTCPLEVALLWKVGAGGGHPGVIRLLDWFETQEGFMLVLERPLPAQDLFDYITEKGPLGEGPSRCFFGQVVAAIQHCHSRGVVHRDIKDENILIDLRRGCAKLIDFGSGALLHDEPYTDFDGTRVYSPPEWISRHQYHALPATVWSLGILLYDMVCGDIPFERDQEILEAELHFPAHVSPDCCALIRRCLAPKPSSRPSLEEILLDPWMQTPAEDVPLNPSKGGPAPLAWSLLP
# Experimental: as §1, §2, §3
# Pim-3 = target: T3, Pim-3 (Homo sapiens, UniProt Q86V86); assay: TR-FRET assay of Pim kinase activity (phosphorylation of Bad Ser112), Pim-3; assay type: biochemical; details: ATP 40 μM, read-out: IC50 Pim3
# T3 construct: full-length human recombinant His6-labelled Pim-1, Pim-2 or Pim-3 protein; His6; made in house
# Experimental: as §1, §2, §3
# CDK1 = CDK1 (Homo sapiens, UniProt P06493); assay: Biochemical results, IC50 CDK1
# Sequence of CDK1 (P06493 whole entry, species assumed): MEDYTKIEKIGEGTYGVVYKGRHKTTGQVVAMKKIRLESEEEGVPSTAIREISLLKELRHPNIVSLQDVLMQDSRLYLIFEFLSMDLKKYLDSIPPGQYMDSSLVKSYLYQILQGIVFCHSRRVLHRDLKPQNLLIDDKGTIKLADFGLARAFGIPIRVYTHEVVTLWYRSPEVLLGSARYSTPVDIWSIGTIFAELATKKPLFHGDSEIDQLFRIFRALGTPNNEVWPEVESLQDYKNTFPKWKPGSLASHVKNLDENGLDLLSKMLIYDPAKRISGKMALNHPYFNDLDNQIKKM
# Sequence of CDK1 (P14635 whole entry partner, species assumed): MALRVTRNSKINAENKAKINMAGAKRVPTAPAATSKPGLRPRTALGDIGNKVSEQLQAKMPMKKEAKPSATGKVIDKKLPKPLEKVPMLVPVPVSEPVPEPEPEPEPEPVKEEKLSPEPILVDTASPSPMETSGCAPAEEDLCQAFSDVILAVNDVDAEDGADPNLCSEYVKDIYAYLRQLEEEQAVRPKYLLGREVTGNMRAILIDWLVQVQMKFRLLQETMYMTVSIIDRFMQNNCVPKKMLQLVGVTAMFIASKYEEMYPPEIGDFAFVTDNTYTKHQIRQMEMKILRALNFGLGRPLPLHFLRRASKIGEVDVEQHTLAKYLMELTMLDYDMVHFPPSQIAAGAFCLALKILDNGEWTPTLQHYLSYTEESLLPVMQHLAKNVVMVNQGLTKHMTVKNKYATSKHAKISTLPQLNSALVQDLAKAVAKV
# PLK1 = PLK1 (Homo sapiens, UniProt P53350); assay: Biochemical results, IC50 PLK1
# Sequence of PLK1 (P53350 whole entry, species assumed): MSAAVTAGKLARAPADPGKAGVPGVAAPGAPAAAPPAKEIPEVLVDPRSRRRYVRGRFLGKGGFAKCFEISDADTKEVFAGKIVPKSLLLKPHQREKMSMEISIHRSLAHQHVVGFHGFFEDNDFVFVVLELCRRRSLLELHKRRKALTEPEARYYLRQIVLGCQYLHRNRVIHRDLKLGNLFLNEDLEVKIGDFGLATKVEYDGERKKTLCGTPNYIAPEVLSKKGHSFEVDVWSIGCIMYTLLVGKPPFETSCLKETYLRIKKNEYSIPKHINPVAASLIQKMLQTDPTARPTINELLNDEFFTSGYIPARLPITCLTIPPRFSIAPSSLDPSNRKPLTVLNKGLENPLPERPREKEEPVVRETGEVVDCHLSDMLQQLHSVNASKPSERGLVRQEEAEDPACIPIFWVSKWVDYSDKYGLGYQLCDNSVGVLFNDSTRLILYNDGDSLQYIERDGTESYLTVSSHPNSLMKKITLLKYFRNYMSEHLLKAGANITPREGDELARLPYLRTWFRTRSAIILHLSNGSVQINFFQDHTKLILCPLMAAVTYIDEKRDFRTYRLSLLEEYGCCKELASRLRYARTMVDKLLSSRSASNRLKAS
# T1 sequence (P11309 whole entry): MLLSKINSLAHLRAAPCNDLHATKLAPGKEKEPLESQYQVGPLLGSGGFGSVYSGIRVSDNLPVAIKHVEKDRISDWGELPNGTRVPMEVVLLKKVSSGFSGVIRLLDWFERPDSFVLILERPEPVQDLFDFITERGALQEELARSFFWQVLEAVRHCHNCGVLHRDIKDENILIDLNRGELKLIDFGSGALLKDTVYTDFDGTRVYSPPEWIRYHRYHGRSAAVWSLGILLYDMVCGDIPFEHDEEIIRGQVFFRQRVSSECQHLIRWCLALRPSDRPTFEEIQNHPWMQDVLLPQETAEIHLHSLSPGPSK
IC50 (Pim-1),IC50 (Pim-2),IC50 (Pim-3),IC50 (CDK1),IC50 (PLK1),SMILES
< 0.1 µM,1 to 5 µM,0.1 to 1 µM,,,"O=C(c1ccc(-c2c(F)cnc3[nH]c4cnc(-c5cccnc5)cc4c23)cc1)N1CCOCC1 [Example 13, {4-[3-fluoro-6-(pyridin-3-yl)-9H-pyrrolo[2,3-b:5,4-c′]dipyridin-4-yl]phenyl}(morpholin-4-yl)methanone]"
< 0.1 µM,0.1 to 1 µM,< 0.1 µM,0.1 to 1 µM,0.1 to 1 µM,"CC1CCCCN1CCNC(=O)c1ccc(-c2c(F)cnc3[nH]c4cnc(-c5cccnc5)cc4c23)cc1 (stereo not shown) [Example 55, 4-[3-fluoro-6-(pyridin-3-yl)-9H-pyrrolo[2,3-b:5,4-c′]dipyridin-4-yl]-N-[2-(2-methylpiperidin-1-yl)ethyl]benzamide]"
< 0.1 µM,0.1 to 1 µM,< 0.1 µM,0.1 to 1 µM,0.1 to 1 µM,"O=C(NCc1ccnc(O)c1)c1ccc(-c2c(F)cnc3[nH]c4cnc(-c5cccnc5)cc4c23)cc1 [Example 82, 4-[3-fluoro-6-(pyridin-3-yl)-9H-pyrrolo[2,3-b:5,4-c′]dipyridin-4-yl]-N-[(2-hydroxypyridin-4-yl)methyl]benzamide]"
< 0.1 µM,0.1 to 1 µM,< 0.1 µM,1 to 5 µM,0.1 to 1 µM,"CN1CCCC1CCNC(=O)c1ccc(-c2c(F)cnc3[nH]c4cnc(-c5cccnc5)cc4c23)cc1 (stereo not shown) [Example 65, 4-[3-fluoro-6-(pyridin-3-yl)-9H-pyrrolo[2,3-b:5,4-c′]dipyridin-4-yl]-N-[2-(1-methylpyrrolidin-2-yl)ethyl]benzamide]"
< 0.1 µM,< 0.1 µM,< 0.1 µM,,,"N[C@H]1CCC[C@@H]1NC(=O)c1ccc(-c2c(F)cnc3[nH]c4cnc(-c5cccnc5)cc4c23)cc1 [Example 85, N-[(1S,2S)-2-aminocyclopentyl]-4-[3-fluoro-6-(pyridin-3-yl)-9H-pyrrolo[2,3-b:5,4-c′]dipyridin-4-yl]benzamide]"
< 0.1 µM,< 0.1 µM,< 0.1 µM,,,"N[C@@H]1CCCC[C@H]1NC(=O)c1ccc(-c2c(F)cnc3[nH]c4cnc(-c5cccnc5)cc4c23)cc1 [Example 83, N-[(1R,2R)-2-aminocyclohexyl]-4-[3-fluoro-6-(pyridin-3-yl)-9H-pyrrolo[2,3-b:5,4-c′]dipyridin-4-yl]benzamide]"
0.1 to 1 µM,> 5 µM,0.1 to 1 µM,1 to 5 µM,0.1 to 1 µM,"COCCN1CCN(C(=O)c2ccc(-c3c(F)cnc4[nH]c5cnc(-c6cccnc6)cc5c34)cc2)CC1 [Example 72, {4-[3-fluoro-6-(pyridin-3-yl)-9H-pyrrolo[2,3-b:5,4-c′]dipyridin-4-yl]phenyl}[4-(2-methoxyethyl)piperazin-1-yl]methanone]"
< 0.1 µM,1 to 5 µM,< 0.1 µM,0.1 to 1 µM,0.1 to 1 µM,"CN(C)[C@@H]1CCN(C(=O)c2ccc(-c3c(F)cnc4[nH]c5cnc(-c6cccnc6)cc5c34)cc2)C1 [Example 46, [(3R)-3-(dimethylamino)pyrrolidin-1-yl]{4-[3-fluoro-6-(pyridin-3-yl)-9H-pyrrolo[2,3-b:5,4-c′]dipyridin-4-yl]phenyl}methanone]"
< 0.1 µM,< 0.1 µM,< 0.1 µM,1 to 5 µM,0.1 to 1 µM,"O=C(NCCNCCO)c1ccc(-c2c(F)cnc3[nH]c4cnc(-c5cccnc5)cc4c23)cc1 [Example 27, 4-[3-fluoro-6-(pyridin-3-yl)-9H-pyrrolo[2,3-b:5,4-c′]dipyridin-4-yl]-N-{2-[(2-hydroxyethyl)amino]ethyl}benzamide]"
< 0.1 µM,1 to 5 µM,0.1 to 1 µM,,,"CN1CCN(C(=O)c2ccc(-c3c(F)cnc4[nH]c5cnc(-c6cccnc6)cc5c34)cc2)CC1 [Example 16, {4-[3-fluoro-6-(pyridin-3-yl)-9H-pyrrolo[2,3-b:5,4-c′]dipyridin-4-yl]phenyl}(4-methylpiperazin-1-yl)methanone]"
< 0.1 µM,< 0.1 µM,< 0.1 µM,0.1 to 1 µM,0.1 to 1 µM,"N[C@H]1CCCC[C@@H]1NC(=O)c1ccc(-c2c(F)cnc3[nH]c4cnc(-c5cccnc5)cc4c23)cc1 [Example 84, N-[(1S,2S)-2-aminocyclohexyl]-4-[3-fluoro-6-(pyridin-3-yl)-9H-pyrrolo[2,3-b:5,4-c′]dipyridin-4-yl]benzamide]"
< 0.1 µM,0.1 to 1 µM,< 0.1 µM,0.1 to 1 µM,< 0.1 µM,"O=C(NCc1ncc[nH]1)c1ccc(-c2c(F)cnc3[nH]c4cnc(-c5cccnc5)cc4c23)cc1 [Example 76, 4-[3-fluoro-6-(pyridin-3-yl)-9H-pyrrolo[2,3-b:5,4-c′]dipyridin-4-yl]-N-(1H-imidazol-2-ylmethyl)benzamide]"
< 0.1 µM,1 to 5 µM,< 0.1 µM,0.1 to 1 µM,0.1 to 1 µM,"CS(=O)(=O)NCCNC(=O)c1ccc(-c2c(F)cnc3[nH]c4cnc(-c5cccnc5)cc4c23)cc1 [Example 62, 4-[3-fluoro-6-(pyridin-3-yl)-9H-pyrrolo[2,3-b:5,4-c′]dipyridin-4-yl]-N-{2-[(methylsulfonyl)amino]ethyl}benzamide]"
0.1 to 1 µM,1 to 5 µM,0.1 to 1 µM,0.1 to 1 µM,0.1 to 1 µM,"CC(N)(CNC(=O)c1ccc(-c2c(F)cnc3[nH]c4cnc(-c5cccnc5)cc4c23)cc1)C(F)(F)F (stereo not shown) [Example 91, N-(2-amino-3,3,3-trifluoro-2-methylpropyl)-4-[3-fluoro-6-(pyridin-3-yl)-9H-pyrrolo[2,3-b:5,4-c′]dipyridin-4-yl]benzamide]"
< 0.1 µM,0.1 to 1 µM,< 0.1 µM,1 to 5 µM,0.1 to 1 µM,"CCN(CC1CCN(C)C1)C(=O)c1ccc(-c2c(F)cnc3[nH]c4cnc(-c5cccnc5)cc4c23)cc1 (stereo not shown) [Example 79, N-ethyl-4-[3-fluoro-6-(pyridin-3-yl)-9H-pyrrolo[2,3-b:5,4-c′]dipyridin-4-yl]-N-[(1-methylpyrrolidin-3-yl)methyl]benzamide]"
0.1 to 1 µM,> 5 µM,1 to 5 µM,,,"O=C(c1cccc(-c2c(F)cnc3[nH]c4cnc(-c5cccnc5)cc4c23)c1)N1CCOCC1 [Example 15, {3-[3-fluoro-6-(pyridin-3-yl)-9H-pyrrolo[2,3-b:5,4-c′]dipyridin-4-yl]phenyl}(morpholin-4-yl)methanone]"
< 0.1 µM,1 to 5 µM,0.1 to 1 µM,,,"COCCCNC(=O)c1ccc(-c2c(F)cnc3[nH]c4cnc(-c5cccnc5)cc4c23)cc1 [Example 17, 4-[3-fluoro-6-(pyridin-3-yl)-9H-pyrrolo[2,3-b:5,4-c′]dipyridin-4-yl]-N-(3-methoxypropyl)benzamide]"
0.1 to 1 µM,1 to 5 µM,0.1 to 1 µM,,,"CN(C)CCNC(=O)c1ccc(-c2c(F)cnc3[nH]c4cnc(-c5cccnc5)cc4c23)cn1 [Example 112, N-[2-(dimethylamino)ethyl]-5-[3-fluoro-6-(pyridin-3-yl)-9H-pyrrolo[2,3-b:5,4-c′]dipyridin-4-yl]pyridine-2-carboxamide]"
< 0.1 µM,1 to 5 µM,0.1 to 1 µM,,,"COCCNC(=O)c1ccc(-c2c(F)cnc3[nH]c4cnc(-c5cccnc5)cc4c23)cc1 [Example 14, 4-[3-fluoro-6-(pyridin-3-yl)-9H-pyrrolo[2,3-b:5,4-c′]dipyridin-4-yl]-N-(2-methoxyethyl)benzamide]"
< 0.1 µM,< 0.1 µM,< 0.1 µM,,,"N[C@@H]1CCC[C@H]1NC(=O)c1ccc(-c2c(F)cnc3[nH]c4cnc(-c5cccnc5)cc4c23)cc1 [Example 86, N-[(1R,2R)-2-aminocyclopentyl]-4-[3-fluoro-6-(pyridin-3-yl)-9H-pyrrolo[2,3-b:5,4-c′]dipyridin-4-yl]benzamide]"
< 0.1 µM,0.1 to 1 µM,< 0.1 µM,,,"CN(C)CCNC(=O)c1ccc(-c2c(F)cnc3[nH]c4cnc(-c5cccnc5)cc4c23)cc1F [Example 113, N-[2-(dimethylamino)ethyl]-2-fluoro-4-[3-fluoro-6-(pyridin-3-yl)-9H-pyrrolo[2,3-b:5,4-c′]dipyridin-4-yl]benzamide]"

# From patent US20120208809A1, “9H-PYRROLO[2,3-B: 5,4-C'] DIPYRIDINE AZACARBOLINE DERIVATIVES, PREPARATION THEREOF, AND THERAPEUTIC USE THEREOF” (SANOFI, priority 2009, published 2012)
